Laboratory results taken from US6875452B1, “Inhibitor and preservative formulation” (priority 1997, dated 2005).

Columns and labels:
[1] = tested on: Listeria monocytogenes 11994; test: Viable count of L. monocytogenes in TSB with plant oils, benzoic acid, methyl paraben and combinations (Experimental Procedure 1); format: cell-based; conditions: for log10 of the mean count: 37° C.; for inhibition of L. monocytogenes in words: over the 48 hr period
Procedure: (§1) Listeria monocytogenes 11994 and Salmonella […] 4444 were purchased from the National Collection Type Culture, Porton Down, Wiltshire, UK. Each was stored in the long term in glycerol at -20° C., in the medium term on Tryptone Soya Agar (TSA) slopes and in the short term on TSA plates. All agar and broth (Tryptone Soya Broth) was purchased from Oxoid-Unipath Limited, Basingstoke, UK. […] Plates were incubated at 37° C. and colonies counted as colony forming units per ml (cfu/ml). […] Oils of fennel and […] used at 0.2% and whilst oil of basil was originally used for comparative purposes at 0.2% it was later used at 0.02%. […] Several factors were considered when choosing these concentrations. […] Triplicate plates were prepared for each dilution and the mean count of three plates was determined. […] Each experiment was performed on three separate occasions. It is the mean count from three separate experiments and the corresponding standard error of the mean which are shown in the results section. Two-tailed paired student's t-test was used to analyse inhibition caused by a combination compared to the corresponding control. Differences were judged to be statistically significant when p<0.05.

[2] = tested on: Salmonella enteriditis 4444; test: Viable count of S. enteriditis in TSB with plant oils, benzoic acid, methyl paraben and combinations (Experimental Procedure 1); format: cell-based; conditions: for log10 of the mean count: 37° C.; for inhibition of S. enteriditis in words: over the 48 hr period
Procedure: as §1

[3] = tested on: Salmonella enteriditis 4444; test: Viable count of S. enteriditis in TSB with trans-anethole, fenchone, estragole, methyl paraben and combinations (Experimental Procedure 2); format: cell-based; conditions: for inhibition of S. enteriditis in words: 0.1%, over the 48 hr period; for log10 of the mean count ± 1 SEM: 37° C., preservatives at 0.1%
Procedure: (§2) Listeria monocytogenes 11994 and Salmonella enteriditis 4444 were purchased from the National Collection Type Culture, Porton Down, Wiltshire, UK. Each was stored in the long term in glycerol at −20° C., in the medium term on Tryptone Soya Agar (TSA) slopes and in the short term on TSA plates. All agar and broth (Tryptone Soya Broth) was purchased from Oxoid-Unipath Limited, Basingstoke, UK.
(§3) Triplicate plates were prepared for each dilution and the mean count of three plates was determined. […] Each experiment was performed on three separate occasions.
(§4) Two-tailed paired student's t-test was used to analyse inhibition caused by a combination compared to the corresponding control. Differences were judged to be statistically significant when p<0.05.
(§5) This definition is also in agreement with Mims et al.
(§6) Corresponding controls were also prepared, thus 10 μl of each overnight culture was added to the appropriate broth only. All tubes were incubated at 37° C. 1 ml samples were removed from each test and control after vortexing at 0 hrs, 1 hr, 4 hrs, 8 hrs, 24 hrs and 48 hrs and serially diluted in 0.01M PBS. 100 μl from each dilution was placed on an agar plate and spread across the surface. Plates were incubated at 37° C. and colonies counted as colony forming units per ml (cfu/ml). As ethanol was used to prepare stock solutions of methyl paraben a diluent control was used where ethanol was added to each culture medium. […] Due to the limitation of the serial dilution technique it was not possible to count cfu less than 10/ml.
(§7) Furthermore to make valid comparison about the activity of each combination against each microbe it was necessary to use just one concentration of each component with the combination. […] In addition, methyl paraben cannot be used in food in excess of 0.1% [15].

[4] = tested on: mice; conditions: high doses, literature [22,23]; cited from earlier work
[5] = tested on: Listeria monocytogenes 11994; test: Viable count of L. monocytogenes in TSB with trans-anethole, fenchone, estragole, methyl paraben and combinations (Experimental Procedure 2); format: cell-based; conditions: for log10 of the mean count ± 1 SEM: 37° C., preservatives at 0.1%; for inhibition of L. monocytogenes in words: 0.1%, over 48 hrs
Procedure: as §2, §3, §4, §5, §6, §7

[6] = literature [20,21]; cited from earlier work
[7] = 0 hrs (starting count, same as control)

## O=C(O)c1ccccc1 [BA, benzoic acid]
[1]; [7]
  log10 of the mean count: 6.45 ± 0.02 log10 cfu/ml
[1]; 1 hr
  log10 of the mean count: 6.33 ± 0.11 log10 cfu/ml
[1]; 4 hrs
  log10 of the mean count: 7.22 ± 0.04 log10 cfu/ml
[1]; 8 hrs
  log10 of the mean count: 8.16 ± 0.06 log10 cfu/ml
[1]; 24 hrs
  log10 of the mean count: 9.09 ± 0.03 log10 cfu/ml
[1]; 48 hrs
  log10 of the mean count: 9.0 ± 0.06 log10 cfu/ml
[1]
  inhibition of L. monocytogenes in words: relatively weakly inhibitory
[2]; [7]
  log10 of the mean count: 6.08 ± 0.03 log10 cfu/ml
[2]; 1 hr
  log10 of the mean count: 6.02 ± 0.04 log10 cfu/ml
[2]; 4 hrs
  log10 of the mean count: 6.46 ± 0.01 log10 cfu/ml
[2]; 8 hrs
  log10 of the mean count: 7.32 ± 0.08 log10 cfu/ml
[2]; 24 hrs
  log10 of the mean count: 8.67 ± 0.14 log10 cfu/ml
[2]; 48 hrs
  log10 of the mean count: 8.52 ± 0.03 log10 cfu/ml
[2]
  inhibition of S. enteriditis in words: little inhibition

## C=CCc1ccc(OC)cc1 [Estragole, estragole (4-allylanisole)]
[3]
  inhibition of S. enteriditis in words: two most single inhibitory preservatives
[3]; 1 hr
  log10 of the mean count ± 1 SEM: 2.2 ± 0.05Δ log10 cfu/ml
[3]; 4 hrs and 8 hrs
  growth inhibited by: more than 5.0 log10
[3]; 4 hrs
  log10 of the mean count ± 1 SEM: 1.6 ± 0.08Δ log10 cfu/ml
[3]; 8 hrs
  log10 of the mean count ± 1 SEM: 1.5 ± 0.08Δ log10 cfu/ml
[3]; 24 hrs
  log10 of the mean count ± 1 SEM: 4.3 ± 0.03Δ log10 cfu/ml
[3]; 48 hrs
  inhibition: 2.1 log10
  log10 of the mean count ± 1 SEM: 6.9 ± 0.03Δ log10 cfu/ml
[4]
  carcinogenicity in words: carcinogenic in high doses in mice
[5]; 1 hr
  log10 of the mean count ± 1 SEM: 5.9 ± 0.05 log10 cfu/ml
[5]; 4 hrs
  log10 of the mean count ± 1 SEM: 5.6 ± 0.07Δ log10 cfu/ml
[5]; 8 hrs
  log10 of the mean count ± 1 SEM: 5.5 ± 0.06Δ log10 cfu/ml
[5]; 24 hrs
  log10 of the mean count ± 1 SEM: 4.9 ± 0.08Δ log10 cfu/ml
[5]; 48 hrs
  log10 of the mean count ± 1 SEM: 4.7 ± 0.09Δ log10 cfu/ml
[5]; after 24 hrs
  inhibition of growth: more than 4 log10

## CC12CCC(C1)C(C)(C)C2=O (stereo not shown) [Fenchone, fenchone]
[6]
  toxicity in words: non-toxic
[3]
  inhibition of S. enteriditis in words: little or no inhibition
[3]; 1 hr
  log10 of the mean count ± 1 SEM: 5.8 ± 0.02 log10 cfu/ml
[3]; 4 hrs
  log10 of the mean count ± 1 SEM: 6.4 ± 0.04 log10 cfu/ml
[3]; 8 hrs
  log10 of the mean count ± 1 SEM: 6.9 ± 0.04Δ log10 cfu/ml
[3]; 24 hrs
  log10 of the mean count ± 1 SEM: 8.6 ± 0.09Δ log10 cfu/ml
[3]; 48 hrs
  log10 of the mean count ± 1 SEM: 8.5 ± 0.01Δ log10 cfu/ml
[5]
  inhibition of L. monocytogenes in words: most inhibitory single component
[5]; 1 hr
  log10 of the mean count ± 1 SEM: 2.7 ± 0.2Δ log10 cfu/ml
[5]; 4 hrs
  log10 of the mean count ± 1 SEM: 1.9 ± 0.08Δ log10 cfu/ml
[5]; 8 hrs and above
  count (cells undetectable): < 10 cfu/ml
[5]; 8 hrs
  log10 of the mean count ± 1 SEM: <1.0Δ log10 cfu/ml
[5]; 24 hrs
  log10 of the mean count ± 1 SEM: <0.1Δ log10 cfu/ml
[5]; 48 hrs
  log10 of the mean count ± 1 SEM: <1.0Δ log10 cfu/ml

## COC(=O)c1ccc(O)cc1 [MP, methyl paraben]
[3]
  inhibition of S. enteriditis in words: little or no inhibition
[3]; 1 hr
  log10 of the mean count ± 1 SEM: 6.0 ± 0.01 log10 cfu/ml
[3]; 4 hrs
  log10 of the mean count ± 1 SEM: 6.3 ± 0.01 log10 cfu/ml
[3]; 8 hrs
  log10 of the mean count ± 1 SEM: 6.6 ± 0.06Δ log10 cfu/ml
[3]; 24 hrs
  log10 of the mean count ± 1 SEM: 8.5 ± 0.04Δ log10 cfu/ml
[3]; 48 hrs
  log10 of the mean count ± 1 SEM: 8.6 ± 0.01Δ log10 cfu/ml
[1]; [7]
  log10 of the mean count: 6.45 ± 0.02 log10 cfu/ml
[1]; 1 hr
  log10 of the mean count: 6.49 ± 0.01 log10 cfu/ml
[1]; 4 hrs
  log10 of the mean count: 7.02 ± 0.02 log10 cfu/ml
[1]; 8 hrs
  log10 of the mean count: 7.86 ± 0.05 log10 cfu/ml
[1]; 24 hrs
  log10 of the mean count: 9.27 ± 0.02 log10 cfu/ml
[1]; 48 hrs
  log10 of the mean count: 9.24 ± 0.02 log10 cfu/ml
[1]
  inhibition of L. monocytogenes in words: relatively weakly inhibitory
[5]
  inhibition of L. monocytogenes in words: little or no inhibitory properties
[5]; 1 hr
  log10 of the mean count ± 1 SEM: 6.5 ± 0.01 log10 cfu/ml
[5]; 4 hrs
  log10 of the mean count ± 1 SEM: 6.9 ± 0.01 log10 cfu/ml
[5]; 8 hrs
  log10 of the mean count ± 1 SEM: 7.7 ± 0.01 log10 cfu/ml
[5]; 24 hrs
  log10 of the mean count ± 1 SEM: 9.3 ± 0.01 log10 cfu/ml
[5]; 48 hrs
  log10 of the mean count ± 1 SEM: 9.2 ± 0.01 log10 cfu/ml
[2]; [7]
  log10 of the mean count: 6.08 ± 0.03 log10 cfu/ml
[2]; 1 hr
  log10 of the mean count: 6.04 ± 0.05 log10 cfu/ml
[2]; 4 hrs
  log10 of the mean count: 6.32 ± 0.03 log10 cfu/ml
[2]; 8 hrs
  log10 of the mean count: 6.63 ± 0.03 log10 cfu/ml
[2]; 24 hrs
  log10 of the mean count: 8.36 ± 0.05 log10 cfu/ml
[2]; 48 hrs
  log10 of the mean count: 8.45 ± 0.11 log10 cfu/ml
[2]
  inhibition of S. enteriditis in words: little inhibition

## C/C=C/c1ccc(OC)cc1 [Trans-anethole]
[6]
  toxicity in words: non-toxic
[5]
  inhibition of L. monocytogenes in words: little or no inhibitory properties
[5]; 1 hr
  log10 of the mean count ± 1 SEM: 6.1 ± 0.04 log10 cfu/ml
[5]; 4 hrs
  log10 of the mean count ± 1 SEM: 6.3 ± 0.1 log10 cfu/ml
[5]; 8 hrs
  log10 of the mean count ± 1 SEM: 6.7 ± 0.2 log10 cfu/ml
[5]; 24 hrs
  log10 of the mean count ± 1 SEM: 9.0 ± 0.1 log10 cfu/ml
[5]; 48 hrs
  log10 of the mean count ± 1 SEM: 9.0 ± 0.01 log10 cfu/ml
